{"source": "patent US20250011289A1", "about": "“1H-BENZO[B]AZEPIN-2(3H)-ONE COMPOUNDS, COMPOSITIONS AND METHODS OF TREATING CANCER” (Chengdu Anticancer Bioscience, Ltd., priority 2021, published 2025)", "key": {"RPE-Neo or RPE-MYC cells": {"tested_on": "RPE-Neo or RPE-MYC cells", "experiment": "MTT assay of cellular proliferation", "type": "cell-based", "details": "compounds at 20 nM to 20 μM; read-out: Min. Effective conc. for Proliferative arrest (>50%)", "procedure,_shortened": "(§1)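 RPE-Neo, RPE-MYC or RPE-MYC EGFP-Histone 2B cells exposed to compound at 20 nM to 20 μM, 18-24 h after plating. Mitotic arrest or DNA-content change imaged at 24, 48 or 72 h; proliferation by MTT. Values binned A (1 nM–1.0 μM), B (>1.00–10.0 μM), C (>10.0–30.0 μM), D (>30.0–<1000 μM).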"}, "[1]": {"tested_on": "RPE-Neo or RPE-MYC or RPE-MYC expressing an EGFP-Histone 2B fusion protein", "experiment": "Phenotypic screening assay (arrest in mitosis or change in DNA content, IN-Cell Analyzer)", "type": "cell-based", "details": "compounds at 20 nM to 20 μM, analysed 24, 48 or 72 hours after initiation of treatment", "procedure,_shortened": "as §1"}, "[2]": {"details": "read-out: Min. Effective conc. for Along with Cell Death"}, "[3]": {"details": "read-out: Min. Effective conc. for Mitotic Arrest (>5%)"}, "[4]": {"details": "read-out: Min. Effective conc. for Polyploidy (≥5%)"}}, "note": "Like-named read-outs stand apart in the source and are kept apart here.", "data": [{"smiles": "COc1ccc(S(=O)(=O)N2CCC(c3nnc(C4CC4)o3)=C(Br)c3ccccc32)cc1F", "note": "[Compound 34-3, 2-(5-bromo-1-((3-fluoro-4-methoxyphenyl)sulfonyl)-2,3-dihydro-1H-benzo[b]azepin-4-yl)-5-cyclopropyl-1,3,4-oxadiazole]", "values": [{"measurement": "minimal effective concentration", "setting": "RPE-Neo or RPE-MYC cells", "result": "1 to 10", "unit": "µM"}, {"measurement": "minimal effective concentration", "setting": "[1]; [2]", "result": "1 to 10", "unit": "µM"}, {"measurement": "minimal effective concentration", "setting": "[1]; [3]", "result": "1 to 10", "unit": "µM"}, {"measurement": "minimal effective concentration", "setting": "[1]; [4]", "result": "1 to 10", "unit": "µM"}]}, {"smiles": "Cc1ccc(CN2C(=O)CC(c3cnco3)=C(Cl)c3ccc(O)cc32)cc1F", "note": "[Compound 8-7, 5-chloro-1-(3-fluoro-4-methylbenzyl)-8-hydroxy-4-(oxazol-5-yl)-1,3-dihydro-2H-benzo[b]azepin-2-one]", "values": [{"measurement": "minimal effective concentration", "setting": "RPE-Neo or RPE-MYC cells", "result": "0.001 to 1", "unit": "µM"}, {"measurement": "minimal effective concentration", "setting": "[1]; [2]", "result": "0.001 to 1", "unit": "µM"}, {"measurement": "minimal effective concentration", "setting": "[1]; [3]", "result": "0.001 to 1", "unit": "µM"}, {"measurement": "minimal effective concentration", "setting": "[1]; [4]", "result": "0.001 to 1", "unit": "µM"}]}, {"smiles": "Cc1ccc(CN2C(=O)CC(c3cnco3)=C(Cl)c3ccc(C#N)cc32)cc1F", "note": "[Compound 8-4, 5-chloro-1-(3-fluoro-4-methylbenzyl)-4-(oxazol-5-yl)-2-oxo-2,3-dihydro-1H-benzo[b]azepine-8-carbonitrile]", "values": [{"measurement": "minimal effective concentration", "setting": "RPE-Neo or RPE-MYC cells", "result": "0.001 to 1", "unit": "µM"}, {"measurement": "minimal effective concentration", "setting": "[1]; [2]", "result": "0.001 to 1", "unit": "µM"}, {"measurement": "minimal effective concentration", "setting": "[1]; [3]", "result": "0.001 to 1", "unit": "µM"}, {"measurement": "minimal effective concentration", "setting": "[1]; [4]", "result": "0.001 to 1", "unit": "µM"}]}]}
